IC50 data for 21 compounds are collected here from patent US11384067B2, “Pyrazole n-linked carbamoyl cyclohexyl acids as LPA antagonists” (BRISTOL-MYERS SQUIBB COMPANY, priority 2017, dated 2022).

SMILES strings stand for the structures.

T1 sequence (Q92633 whole entry): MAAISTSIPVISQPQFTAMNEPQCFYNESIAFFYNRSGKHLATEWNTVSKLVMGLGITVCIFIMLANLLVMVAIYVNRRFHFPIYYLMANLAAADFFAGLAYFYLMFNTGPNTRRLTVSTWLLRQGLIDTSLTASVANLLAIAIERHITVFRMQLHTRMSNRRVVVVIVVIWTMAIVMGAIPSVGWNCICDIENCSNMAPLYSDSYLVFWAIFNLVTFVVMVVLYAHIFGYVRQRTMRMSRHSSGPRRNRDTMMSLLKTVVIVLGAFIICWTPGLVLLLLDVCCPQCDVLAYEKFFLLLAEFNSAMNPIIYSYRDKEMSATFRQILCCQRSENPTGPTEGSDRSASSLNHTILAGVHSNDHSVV

This experiment concerns the target T1, human LPA1 (Homo sapiens, UniProt Q92633).
T1 construct: expressed in transfected cells; host or cells: Chinese hamster ovary (CHO) cells
Nature of the experiment: LPA1 functional antagonist assay (LPA-induced calcium flux). It counts as cell-based. To be noted: CHO cells overexpressing human LPA1, 10 nM LPA, read-out: hLPA1 IC50. The protocol:
The effectiveness of compounds of the present invention as LPA1 inhibitors can be determined in an LPA1 functional antagonist assay as follows:
The cells were then equilibrated to room temperature for 30 minutes before the assay. […] IC50 values were determined by fitting data to a 4-parameter logistic equation (GraphPad Prism, San Diego Calif.).
Regarding `Cc1cccc(COC(=O)NCc2c(-c3ccc(O[C@H]4CCC[C@H](C(=O)O)C4)cn3)cnn2C)c1` [Example 21, (1S,3S)-3-((6-(1-methyl-5-(((((3-methylbenzyl)oxy)carbonyl)amino)methyl)-1H-pyrazol-4-yl)pyridin-3-yl)oxy)cyclohexane-1-carboxylic acid], the IC50 was 182 nM.
Take `CN(Cc1c(-c2ccc(O[C@H]3CCC[C@H](C(=O)O)C3)cn2)cnn1C)C(=O)OCc1ccccc1` [Example 24, (1S,3S)-3-((6-(5-((((benzyloxy)carbonyl)(methyl)amino)methyl)-1-methyl-1H-pyrazol-4-yl)pyridin-3-yl)oxy)cyclohexane-1-carboxylic acid]: the IC50 is 204 nM.
For the compound `CC[C@H](C)COC(=O)NCc1c(-c2ccc(O[C@H]3CCC[C@H](C(=O)O)C3)c(C)n2)cnn1C` [Example 34, (1S,3S)-3-((2-methyl-6-(1-methyl-5-(((((S)-2-methylbutoxy)carbonyl)amino)methyl)-1H-pyrazol-4-yl)pyridin-3-yl)oxy)cyclohexane-1-carboxylic acid], the IC50 was 20 nM.
In the case of `Cc1nc(-c2cnn(C)c2CNC(=O)O[C@H](C)c2ccccc2)ccc1O[C@H]1CCC[C@H](C(=O)O)C1` [Example 5, (1S,3S)-3-((2-methyl-6-(1-methyl-5-(((((R)-1-phenylethoxy)carbonyl)amino)methyl)-1H-pyrazol-4-yl)pyridin-3-yl)oxy)cyclohexane-1-carboxylic acid], the IC50 turned out to be 11 nM.
Then `CCCCCOC(=O)NCc1c(-c2ccc(O[C@H]3CCC[C@H](C(=O)O)C3)cn2)cnn1C` [Example 12, (1S,3S)-3-((6-(1-methyl-5-((((pentyl-oxy)carbonyl)amino)methyl)-1H-pyrazol-4-yl)pyridin-3-yl)oxy)cyclohexane-1-carboxylic acid], with 16 nM.
Then `Cn1ncc(-c2ccc(O[C@H]3CCC[C@H](C(=O)O)C3)cn2)c1CNC(=O)OCc1ccccc1` [Example 25, (1S,3S)-3-((6-(5-((((benzyloxy)carbonyl)amino)methyl)-1-methyl-1H-pyrazol-4-yl)pyridin-3-yl)oxy)cyclohexane-1-carboxylic acid], with 20 nM.
Then `Cc1nc(-c2cnn(C)c2CN(C)C(=O)OCc2ccccc2)ccc1O[C@H]1CCC[C@H](C(=O)O)C1` [Example 32, (1S,3S)-3-((6-(5-((((benzyloxy)carbonyl)(methyl)amino)methyl)-1-methyl-1H-pyrazol-4-yl)-2-methyl-pyridin-3-yl)oxy)cyclohexane-1-carboxylic acid], with 211 nM; and `Cc1nc(-c2cnn(C)c2CNC(=O)OCC(C)C)ccc1O[C@H]1CCC[C@H](C(=O)O)C1` [Example 28, (1S,3S)-3-((6-(5-(((isobutoxy-carbonyl)amino)methyl)-1-methyl-1H-pyrazol-4-yl)-2-methylpyridin-3-yl)oxy)cyclohexane-1-carboxylic acid], with 29 nM; and `Cc1nc(-c2cnn(C)c2CNC(=O)OCC(C)(C)C)ccc1O[C@H]1CCC[C@H](C(=O)O)C1` [Example 27], with 22 nM.
For `CCCCCOC(=O)NCc1c(-c2ccc(O[C@H]3CCC[C@H](C(=O)O)C3)c(C)n2)cnn1C` [Example 19, (1S,3S)-3-((2-methyl-6-(1-methyl-5-((((pentyloxy)carbonyl)amino)methyl)-1H-pyrazol-4-yl)pyridin-3-yl)oxy)cyclohexane-1-carboxylic acid], the IC50 turned out to be 4 nM.
As for `C[C@@H](OC(=O)NCc1c(-c2ccc(O[C@H]3CCC[C@H](C(=O)O)C3)cn2)cnn1C)c1ccccc1` [Example 16, (1S,3S)-3-((6-(1-methyl-5-(((((R)-1-phenylethoxy)carbonyl)amino)methyl)-1H-pyrazol-4-yl)pyridin-3-yl)oxy)cyclohexane-1-carboxylic acid], the figure is 23 nM; as for `CCCCOC(=O)NCc1c(-c2cnc(O[C@H]3CCC[C@H](C(=O)O)C3)c(C)n2)cnn1C` [Example 30, (1S,3S)-3-((5-(5-(((butoxycarbonyl)amino)methyl)-1-methyl-1H-pyrazol-4-yl)-3-methylpyrazin-2-yl)oxy)cyclohexane-1-carboxylic acid], 283 nM; as for `CN(Cc1c(-c2ccc(O[C@H]3CCC[C@H](C(=O)O)C3)cn2)cnn1C)C(=O)OCc1cc(F)ccc1F` [Example 10, (1S,3S)-3-((6-(5-(((((2,5-difluoro-benzyl)oxy)carbonyl)(methyl)amino)methyl)-1-methyl-1H-pyrazol-4-yl)pyridin-3-yl)oxy)cyclohexane-1-carboxylic acid], 1660 nM.
With `CCCCCCOC(=O)NCc1c(-c2ccc(O[C@H]3CCC[C@H](C(=O)O)C3)c(C)n2)cnn1C` [Example 26], the 50% inhibitory concentration (IC50) came out at 14 nM.
Then `Cc1nc(-c2cnn(C)c2NC(=O)OCC2CC2)ncc1O[C@H]1CCC[C@H](C(=O)O)C1` [Example 44, (1S,3S)-3-((2-(5-(((cyclopropyl-methoxy)carbonyl)amino)-1-methyl-1H-pyrazol-4-yl)-4-methylpyrimidin-5-yl)oxy)cyclohexane-1-carboxylic acid], with 995 nM; and `Cc1nc(-c2cnn(C)c2CNC(=O)OCc2ccccc2)ncc1O[C@H]1CCC[C@H](C(=O)O)C1` [Example 37, (1S,3S)-3-((2-(5-((((benzyloxy)carbonyl)amino)methyl)-1-methyl-1H-pyrazol-4-yl)-4-methylpyrimidin-5-yl)oxy)cyclohexane-1-carboxylic Acid], with 16 nM; and `Cc1nc(-c2cnn(C)c2CNC(=O)OCc2cc(F)cc(F)c2)ccc1O[C@H]1CCC[C@H](C(=O)O)C1` [Example 6, (1S,3S)-3-((6-(5-(((((3,5-difluoro-benzyl)oxy)carbonyl)amino)methyl)-1-methyl-1H-pyrazol-4-yl)-2-methyl-pyridin-3-yl)oxy)cyclohexane-1-carboxylic acid], with 7 nM.
As for `Cc1nc(-c2cnn(C)c2CNC(=O)OCc2cccc(F)c2)ccc1O[C@H]1CCC[C@H](C(=O)O)C1` [Example 4, (1S,3S)-3-((6-(5-(((((3-fluorobenzyl)oxy)carbonyl)amino)methyl)-1-methyl-1H-pyrazol-4-yl)-2-methyl-pyridin-3-yl)oxy)cyclohexane-1-carboxylic acid], the figure is 12 nM; as for `CCCOC(=O)NCc1c(-c2ccc(O[C@H]3CCC[C@H](C(=O)O)C3)c(C)n2)cnn1C` [Example 20, (1S,3S)-3-((2-methyl-6-(1-methyl-5-(((propoxycarbonyl)amino)methyl)-1H-pyrazol-4-yl)pyridin-3-yl)oxy)cyclohexane-1-carboxylic acid], 275 nM; as for `CCCCOC(=O)Nc1c(-c2ncc(O[C@H]3CCC[C@H](C(=O)O)C3)c(C)n2)cnn1C` [Example 42, (1S,3S)-3-((2-(5-((butoxycarbonyl)amino)-1-methyl-1H-pyrazol-4-yl)-4-methylpyrimidin-5-yl)oxy)cyclohexane-1-carboxylic acid], 239 nM.
As for `CCCCCCOC(=O)NCc1c(-c2ccc(O[C@H]3CCC[C@H](C(=O)O)C3)cn2)cnn1C` [Example 13, (1S,3S)-3-((6-(5-((((hexyloxy)carbonyl)amino)methyl)-1-methyl-1H-pyrazol-4-yl)pyridin-3-yl)oxy)cyclohexane-1-carboxylic acid], the figure is 834 nM.
